Drawing on ChEMBL document CHEMBL1201862, “PubChem BioAssay data set” (2004), this text covers IC50 and EC50 for three compounds.

Activity calls are given as the source filed them.

A word on the IC50: it is the point on the concentration scale where inhibition reaches its midpoint. As a reminder, the EC50 is the concentration giving half of the maximal effect.

Assay [1] has as its target T1, Sentrin-specific protease 8 (Homo sapiens, UniProt Q96LD8).
T1 sequence (Q96LD8 whole entry): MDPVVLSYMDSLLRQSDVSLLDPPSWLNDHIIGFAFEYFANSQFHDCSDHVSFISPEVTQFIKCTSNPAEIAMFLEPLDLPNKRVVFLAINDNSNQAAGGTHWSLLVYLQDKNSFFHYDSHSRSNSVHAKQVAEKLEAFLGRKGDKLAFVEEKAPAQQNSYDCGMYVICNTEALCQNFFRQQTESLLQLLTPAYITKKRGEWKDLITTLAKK
The assay is described as follows: SENP8 protease inhibitors, SAR follow-up, biochemical, luminescence (AID 504501). It counts as functional.

Assay [2] concerns the target T2, Caspase-3 (Homo sapiens, UniProt P42574).
T2 sequence (P42574 whole entry): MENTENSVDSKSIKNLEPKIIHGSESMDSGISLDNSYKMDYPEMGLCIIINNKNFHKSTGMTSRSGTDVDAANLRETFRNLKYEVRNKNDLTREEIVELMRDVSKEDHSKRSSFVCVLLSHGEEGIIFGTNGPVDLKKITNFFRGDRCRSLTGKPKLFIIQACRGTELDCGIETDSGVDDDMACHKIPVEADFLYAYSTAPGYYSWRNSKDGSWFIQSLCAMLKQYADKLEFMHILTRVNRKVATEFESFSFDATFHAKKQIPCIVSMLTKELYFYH
The assay is described as follows: SAR Analysis of small molecule inhibitors of Sentrin-specific proteases (SENPs) using a Caspase-3 Selectivity assay. [Related pubchem assays (depositor defined):AID2540, AID2599, AID434973, AID489001]. It counts as functional.

Assay [3] concerns the target T3, Sentrin-specific protease 7 (Homo sapiens, UniProt Q9BQF6).
T3 sequence (Q9BQF6 whole entry): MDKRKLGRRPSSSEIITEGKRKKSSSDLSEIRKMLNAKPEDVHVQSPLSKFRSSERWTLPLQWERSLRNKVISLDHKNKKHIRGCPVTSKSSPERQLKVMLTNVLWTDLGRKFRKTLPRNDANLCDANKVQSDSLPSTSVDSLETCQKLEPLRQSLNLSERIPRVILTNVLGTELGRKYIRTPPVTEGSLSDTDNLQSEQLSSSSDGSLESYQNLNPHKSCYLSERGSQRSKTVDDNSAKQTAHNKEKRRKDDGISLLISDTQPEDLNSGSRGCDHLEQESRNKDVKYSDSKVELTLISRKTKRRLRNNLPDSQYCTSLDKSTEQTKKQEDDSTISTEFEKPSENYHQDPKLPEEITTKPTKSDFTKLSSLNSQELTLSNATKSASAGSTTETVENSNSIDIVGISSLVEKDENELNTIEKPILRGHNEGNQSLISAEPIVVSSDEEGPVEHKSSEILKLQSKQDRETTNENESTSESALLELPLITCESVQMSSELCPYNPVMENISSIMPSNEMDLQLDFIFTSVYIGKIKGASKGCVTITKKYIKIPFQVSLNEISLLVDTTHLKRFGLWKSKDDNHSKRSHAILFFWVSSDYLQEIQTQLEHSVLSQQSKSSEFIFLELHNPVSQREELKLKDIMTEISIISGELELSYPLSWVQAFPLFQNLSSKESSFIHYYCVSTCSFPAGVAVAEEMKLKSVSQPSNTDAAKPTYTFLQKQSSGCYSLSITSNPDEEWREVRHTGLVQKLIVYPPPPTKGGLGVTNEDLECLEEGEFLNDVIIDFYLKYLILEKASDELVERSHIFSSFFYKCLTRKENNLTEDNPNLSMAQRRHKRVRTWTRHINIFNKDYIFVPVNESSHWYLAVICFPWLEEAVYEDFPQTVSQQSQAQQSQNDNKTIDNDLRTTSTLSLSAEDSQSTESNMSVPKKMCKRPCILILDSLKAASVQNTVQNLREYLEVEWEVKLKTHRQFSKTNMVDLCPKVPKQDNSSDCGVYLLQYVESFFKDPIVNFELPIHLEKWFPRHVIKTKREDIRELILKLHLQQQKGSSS
The assay is described as follows: SENP7 protease inhibitors, SAR follow-up, biochemical, luminescence (AID 504497). Format: functional.

The target in assay [4] is T4, Sentrin-specific protease 6 (Homo sapiens, UniProt Q9GZR1).
T4 sequence (Q9GZR1 whole entry): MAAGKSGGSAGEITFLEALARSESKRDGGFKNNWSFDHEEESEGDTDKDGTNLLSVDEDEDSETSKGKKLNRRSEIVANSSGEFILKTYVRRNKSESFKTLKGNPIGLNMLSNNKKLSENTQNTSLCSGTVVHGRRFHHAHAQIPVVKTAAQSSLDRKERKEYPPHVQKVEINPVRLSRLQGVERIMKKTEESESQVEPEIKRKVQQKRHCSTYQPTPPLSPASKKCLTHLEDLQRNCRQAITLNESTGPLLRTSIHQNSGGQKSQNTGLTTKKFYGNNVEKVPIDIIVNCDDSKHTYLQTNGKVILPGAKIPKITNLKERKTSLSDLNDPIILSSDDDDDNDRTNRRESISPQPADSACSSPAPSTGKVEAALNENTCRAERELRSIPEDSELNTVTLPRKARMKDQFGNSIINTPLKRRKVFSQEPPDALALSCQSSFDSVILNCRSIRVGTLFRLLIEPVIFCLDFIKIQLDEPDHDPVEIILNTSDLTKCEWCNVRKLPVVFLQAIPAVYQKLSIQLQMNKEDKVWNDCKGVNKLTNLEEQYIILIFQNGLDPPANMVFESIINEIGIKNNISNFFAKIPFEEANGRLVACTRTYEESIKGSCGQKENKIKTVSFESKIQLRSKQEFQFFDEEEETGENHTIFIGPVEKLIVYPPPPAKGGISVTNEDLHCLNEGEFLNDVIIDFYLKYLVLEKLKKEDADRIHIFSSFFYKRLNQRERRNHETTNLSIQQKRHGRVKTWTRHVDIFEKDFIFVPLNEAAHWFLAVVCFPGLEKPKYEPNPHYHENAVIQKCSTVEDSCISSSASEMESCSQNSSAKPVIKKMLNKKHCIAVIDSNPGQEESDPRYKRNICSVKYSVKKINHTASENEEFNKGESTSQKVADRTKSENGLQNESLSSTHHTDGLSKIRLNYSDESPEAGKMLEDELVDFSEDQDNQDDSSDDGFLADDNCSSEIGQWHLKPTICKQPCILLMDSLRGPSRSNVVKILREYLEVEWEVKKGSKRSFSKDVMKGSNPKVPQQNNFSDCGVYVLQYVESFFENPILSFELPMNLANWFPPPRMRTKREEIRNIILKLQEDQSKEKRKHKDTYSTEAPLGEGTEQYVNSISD
In words: SAR Analysis of small molecule inhibitors of Sentrin-specific protease 6 (SENP6) using a Luminescent assay. [Related pubchem assays (depositor defined):AID2582, AID2599]. Format: functional.

For assay [5], the system named is HEK293. The assay is described as follows: optical interference in Abeta FP readout, dose response, artefact control for IDE activator project, biochemical, fluorescence polarization (AID 588442). It counts as functional, cell-based. The conditions noted are these: Homo sapiens. In general terms: In fluorescence polarisation assays a small probe gives low polarisation when free and higher when bound to something large.

Assay [6] addresses T5, Insulin-degrading enzyme (Homo sapiens, UniProt P14735).
T5 sequence (P14735 whole entry): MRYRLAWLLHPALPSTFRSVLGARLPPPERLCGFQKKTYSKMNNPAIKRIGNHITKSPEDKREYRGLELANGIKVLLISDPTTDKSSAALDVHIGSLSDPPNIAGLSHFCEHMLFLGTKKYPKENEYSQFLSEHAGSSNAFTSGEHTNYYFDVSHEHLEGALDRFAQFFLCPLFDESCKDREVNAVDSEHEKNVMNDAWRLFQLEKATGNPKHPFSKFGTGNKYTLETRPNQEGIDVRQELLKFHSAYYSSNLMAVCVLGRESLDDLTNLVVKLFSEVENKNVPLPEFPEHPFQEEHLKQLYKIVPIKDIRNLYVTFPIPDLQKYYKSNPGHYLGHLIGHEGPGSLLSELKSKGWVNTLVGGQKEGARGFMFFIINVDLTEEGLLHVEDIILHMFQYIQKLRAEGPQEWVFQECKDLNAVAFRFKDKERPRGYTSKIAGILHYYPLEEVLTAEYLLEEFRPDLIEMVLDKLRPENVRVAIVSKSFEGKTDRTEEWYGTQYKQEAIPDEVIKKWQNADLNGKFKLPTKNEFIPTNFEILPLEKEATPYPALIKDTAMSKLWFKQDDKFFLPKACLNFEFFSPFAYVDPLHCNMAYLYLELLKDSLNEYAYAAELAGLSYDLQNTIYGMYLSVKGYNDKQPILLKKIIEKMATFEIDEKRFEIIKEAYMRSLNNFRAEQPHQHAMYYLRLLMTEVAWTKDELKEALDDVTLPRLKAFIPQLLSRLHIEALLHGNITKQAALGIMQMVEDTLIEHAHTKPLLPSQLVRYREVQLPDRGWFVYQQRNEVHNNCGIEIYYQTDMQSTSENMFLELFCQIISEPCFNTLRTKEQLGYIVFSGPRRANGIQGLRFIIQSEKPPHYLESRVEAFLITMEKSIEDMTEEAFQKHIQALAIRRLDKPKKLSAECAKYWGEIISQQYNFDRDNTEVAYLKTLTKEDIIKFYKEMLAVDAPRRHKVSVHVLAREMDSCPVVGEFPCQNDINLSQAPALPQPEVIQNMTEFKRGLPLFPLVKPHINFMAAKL
The assay is described as follows: activators of endogenous IDE in HEK cells, dose response, cell-based, fluorescence polarization (AID 588439). Format: functional.

In assay [7] the test system is HEK293. The assay is described as follows: HEK cell cytotoxicity by LDH release, dose response, cytotoxicity control for IDE activator project, fluorescence, HEK cells (AID 588440).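 Also: cytotoxicity by LDH release measuring loss of membrane integrity.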 It counts as functional, cell-based. The conditions noted are these: Homo sapiens. In general terms: LDH in the medium is a marker of cell lysis.
For assay [8], the target named is T5, Insulin-degrading enzyme. The assay is described as follows: activators of recombinant IDE enzyme, dose response, counter-screen for IDE activator project, biochemical, fluorescence polarization (AID 588681). On the technique in general: The purpose of a counterscreen is to sort out artefacts and off-target activity.

Take `O=C(Cc1cccc(C(F)(F)F)c1)N(c1ccccc1)c1nc(-c2ccccc2)ns1`: the IC50 in assay [1], in assay [2], in assay [3] and in assay [4] was > 99 µM (inactive) each time.

Consider `NC(=O)c1ccc(OC2CSC2)cc1`, for which the IC50 is 7.5 µM (active) in assay [1], > 99 µM (inactive) in assay [2], > 99 µM (inactive) in assay [3] and 18.7 µM (active) in assay [4].

In the case of `C[C@@H]1O[C@@H](O[C@H]2[C@H](O[C@H]3C[C@]4(C)[C@H](CC(O)C5[C@@H]([C@]6(C)CC[C@@H](C(C)(C)O)O6)CC[C@]54C)[C@@]4(C)CC[C@H](O)C(C)(C)C34)O[C@H](CO)[C@@H](O)[C@@H]2O)[C@H](O)[C@H](O)[C@H]1O` (some centres not stated), the EC50 in assay [5], in assay [6] and in assay [8] was > 54.7 µM (inactive) in each case. For the same compound, the IC50 in assay [7] was > 89.2 µM (inactive).
